Results: article PMC11167047 (Cell Death Discovery, 2024)

What was measured:
Test in all cases: kinome screen (33PanQinase)
Assay type in all cases: biochemical
CAMK2A = target: T1, CAMK2A (Homo sapiens, UniProt Q9UQM7)
T1 construct: purchased Reaction Biology Europe GmbH (formerly ProQinase)
Description: (§1) The Kinome Screening was performed by Reaction Biology Europe GmbH (http://reactionbiology.com; Freiburg i. Br., Germany).

CDK18/CycY = target: T2, CDK18/CycY (Homo sapiens, UniProt Q07002)
T2 construct: purchased Reaction Biology Europe GmbH (formerly ProQinase)
T2 sequence (Q07002 whole entry): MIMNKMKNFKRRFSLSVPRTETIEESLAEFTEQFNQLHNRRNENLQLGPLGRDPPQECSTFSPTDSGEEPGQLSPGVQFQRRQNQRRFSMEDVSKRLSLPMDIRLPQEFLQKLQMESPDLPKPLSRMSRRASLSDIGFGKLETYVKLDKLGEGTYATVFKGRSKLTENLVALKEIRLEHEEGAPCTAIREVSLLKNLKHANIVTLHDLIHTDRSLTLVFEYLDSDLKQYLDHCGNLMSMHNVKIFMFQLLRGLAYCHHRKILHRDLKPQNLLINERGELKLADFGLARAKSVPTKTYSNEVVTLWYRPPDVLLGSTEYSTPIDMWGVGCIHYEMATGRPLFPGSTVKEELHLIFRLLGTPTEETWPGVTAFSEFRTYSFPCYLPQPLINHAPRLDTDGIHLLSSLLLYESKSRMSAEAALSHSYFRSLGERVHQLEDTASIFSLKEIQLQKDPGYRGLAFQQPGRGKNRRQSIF
T2 sequence (Q8ND76 whole entry partner): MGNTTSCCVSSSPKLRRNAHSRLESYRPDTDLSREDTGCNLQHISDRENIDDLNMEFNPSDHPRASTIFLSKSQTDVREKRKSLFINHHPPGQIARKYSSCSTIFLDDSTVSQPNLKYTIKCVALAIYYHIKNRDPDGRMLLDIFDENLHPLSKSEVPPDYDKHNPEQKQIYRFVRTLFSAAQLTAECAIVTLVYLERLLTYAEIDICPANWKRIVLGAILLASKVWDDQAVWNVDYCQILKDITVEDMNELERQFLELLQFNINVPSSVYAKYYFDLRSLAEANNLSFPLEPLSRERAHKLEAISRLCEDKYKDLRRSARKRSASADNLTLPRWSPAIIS
Description: as §1

DMPK = target: T3, DMPK (Homo sapiens, UniProt Q09013)
T3 construct: purchased Reaction Biology Europe GmbH (formerly ProQinase)
T3 sequence (Q09013 1-629): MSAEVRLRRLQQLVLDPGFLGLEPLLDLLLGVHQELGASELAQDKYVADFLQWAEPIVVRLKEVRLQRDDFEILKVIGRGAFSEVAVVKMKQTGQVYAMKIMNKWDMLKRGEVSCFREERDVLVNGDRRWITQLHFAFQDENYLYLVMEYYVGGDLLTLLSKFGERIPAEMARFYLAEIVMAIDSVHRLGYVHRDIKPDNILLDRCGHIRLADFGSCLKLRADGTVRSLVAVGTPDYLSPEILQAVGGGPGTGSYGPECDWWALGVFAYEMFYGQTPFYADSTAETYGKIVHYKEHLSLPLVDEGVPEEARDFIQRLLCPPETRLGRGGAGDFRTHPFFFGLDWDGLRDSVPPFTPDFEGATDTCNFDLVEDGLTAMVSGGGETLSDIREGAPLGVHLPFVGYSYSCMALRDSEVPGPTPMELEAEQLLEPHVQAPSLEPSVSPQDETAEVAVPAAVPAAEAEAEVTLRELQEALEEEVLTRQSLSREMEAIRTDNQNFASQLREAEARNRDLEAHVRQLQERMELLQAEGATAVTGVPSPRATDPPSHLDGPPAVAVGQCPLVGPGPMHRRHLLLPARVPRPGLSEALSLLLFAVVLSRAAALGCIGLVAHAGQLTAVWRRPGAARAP
Description: as §1

EPHB2 = target: T4, EPHB2 (Homo sapiens, UniProt P29323)
T4 construct: purchased Reaction Biology Europe GmbH (formerly ProQinase)
T4 sequence (P29323 19-1055): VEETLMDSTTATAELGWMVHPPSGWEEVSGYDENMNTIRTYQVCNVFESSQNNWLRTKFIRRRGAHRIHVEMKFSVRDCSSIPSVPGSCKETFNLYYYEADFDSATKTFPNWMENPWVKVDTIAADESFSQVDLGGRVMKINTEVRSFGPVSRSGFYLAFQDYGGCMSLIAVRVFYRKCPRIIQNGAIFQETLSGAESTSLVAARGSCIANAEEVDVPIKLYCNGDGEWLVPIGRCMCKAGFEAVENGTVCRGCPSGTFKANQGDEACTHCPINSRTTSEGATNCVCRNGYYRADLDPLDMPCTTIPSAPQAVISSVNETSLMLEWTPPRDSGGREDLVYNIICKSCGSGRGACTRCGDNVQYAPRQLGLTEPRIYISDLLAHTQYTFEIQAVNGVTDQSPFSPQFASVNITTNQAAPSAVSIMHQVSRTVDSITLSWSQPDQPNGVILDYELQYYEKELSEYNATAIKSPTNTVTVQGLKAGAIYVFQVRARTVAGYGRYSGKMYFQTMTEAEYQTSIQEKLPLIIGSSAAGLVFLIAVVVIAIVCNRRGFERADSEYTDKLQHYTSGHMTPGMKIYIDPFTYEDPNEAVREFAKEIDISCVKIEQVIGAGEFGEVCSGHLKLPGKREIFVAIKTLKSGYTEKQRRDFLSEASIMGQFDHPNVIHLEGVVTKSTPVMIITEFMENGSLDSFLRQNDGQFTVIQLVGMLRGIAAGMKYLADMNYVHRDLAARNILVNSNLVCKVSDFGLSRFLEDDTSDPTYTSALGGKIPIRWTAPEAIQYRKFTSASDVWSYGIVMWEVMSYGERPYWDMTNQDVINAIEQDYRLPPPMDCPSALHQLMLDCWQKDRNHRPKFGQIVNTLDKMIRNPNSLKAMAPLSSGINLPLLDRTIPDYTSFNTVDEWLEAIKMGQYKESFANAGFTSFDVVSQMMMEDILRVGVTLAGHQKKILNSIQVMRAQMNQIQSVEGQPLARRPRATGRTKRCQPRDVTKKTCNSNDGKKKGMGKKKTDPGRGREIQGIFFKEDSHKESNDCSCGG
Description: as §1

PRKX = target: T5, PRKX (Homo sapiens, UniProt P51817)
T5 construct: purchased Reaction Biology Europe GmbH (formerly ProQinase)
T5 sequence (P51817 1-358): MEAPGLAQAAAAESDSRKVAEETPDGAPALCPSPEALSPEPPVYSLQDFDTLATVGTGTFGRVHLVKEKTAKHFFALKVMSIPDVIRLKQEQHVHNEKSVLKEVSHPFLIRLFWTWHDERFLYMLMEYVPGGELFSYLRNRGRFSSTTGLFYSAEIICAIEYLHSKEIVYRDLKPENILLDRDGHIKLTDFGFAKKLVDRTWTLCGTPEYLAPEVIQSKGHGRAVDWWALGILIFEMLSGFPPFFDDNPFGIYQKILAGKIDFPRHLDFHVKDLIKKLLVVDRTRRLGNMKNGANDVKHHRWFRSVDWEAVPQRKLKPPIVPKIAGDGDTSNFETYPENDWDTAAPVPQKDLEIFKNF
Description: as §1

SNARK = target: T6, SNARK (Homo sapiens, UniProt Q9H093)
T6 construct: purchased Reaction Biology Europe GmbH (formerly ProQinase)
T6 sequence (Q9H093 1-628): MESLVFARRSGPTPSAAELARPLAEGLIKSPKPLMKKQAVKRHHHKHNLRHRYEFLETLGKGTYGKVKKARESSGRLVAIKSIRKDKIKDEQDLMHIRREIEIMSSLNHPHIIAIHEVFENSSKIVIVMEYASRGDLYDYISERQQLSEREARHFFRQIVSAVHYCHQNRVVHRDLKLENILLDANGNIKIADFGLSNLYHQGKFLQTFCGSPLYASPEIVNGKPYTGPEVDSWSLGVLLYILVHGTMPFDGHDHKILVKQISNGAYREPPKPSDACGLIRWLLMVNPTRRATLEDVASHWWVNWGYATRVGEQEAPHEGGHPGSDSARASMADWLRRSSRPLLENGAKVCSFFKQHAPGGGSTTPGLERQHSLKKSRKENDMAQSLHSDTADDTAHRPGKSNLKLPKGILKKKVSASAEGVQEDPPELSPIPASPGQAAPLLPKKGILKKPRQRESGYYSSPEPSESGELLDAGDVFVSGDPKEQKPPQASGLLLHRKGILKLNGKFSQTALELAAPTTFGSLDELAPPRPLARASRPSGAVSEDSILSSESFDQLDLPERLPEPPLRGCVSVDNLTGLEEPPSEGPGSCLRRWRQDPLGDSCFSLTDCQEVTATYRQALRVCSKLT
Description: as §1

T1 sequence (Q9UQM7 whole entry): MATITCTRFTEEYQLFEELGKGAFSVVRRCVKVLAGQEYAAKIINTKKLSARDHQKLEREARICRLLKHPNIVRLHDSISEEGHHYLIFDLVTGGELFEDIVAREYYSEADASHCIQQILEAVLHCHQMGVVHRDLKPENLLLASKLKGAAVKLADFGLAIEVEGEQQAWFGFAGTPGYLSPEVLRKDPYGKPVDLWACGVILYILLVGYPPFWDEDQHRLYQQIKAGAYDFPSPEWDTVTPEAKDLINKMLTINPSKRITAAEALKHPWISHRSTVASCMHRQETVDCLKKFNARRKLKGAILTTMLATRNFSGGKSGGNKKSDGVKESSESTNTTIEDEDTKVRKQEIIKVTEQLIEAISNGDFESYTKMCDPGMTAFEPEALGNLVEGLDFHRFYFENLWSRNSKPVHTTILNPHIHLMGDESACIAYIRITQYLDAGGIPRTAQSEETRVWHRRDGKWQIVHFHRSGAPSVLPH

Compound | residual kinase activity (CAMK2A; 0.03 µM) | residual kinase activity (CAMK2A; 0.3 µM) | residual kinase activity (CDK18/CycY; 0.03 µM) | residual kinase activity (CDK18/CycY; 0.3 µM) | residual kinase activity (DMPK; 0.03 µM) | residual kinase activity (DMPK; 0.3 µM) | residual kinase activity (EPHB2; 0.03 µM) | residual kinase activity (EPHB2; 0.3 µM) | residual kinase activity (PRKX; 0.03 µM) | residual kinase activity (PRKX; 0.3 µM) | residual kinase activity (SNARK; 0.03 µM) | residual kinase activity (SNARK; 0.3 µM) | residual kinase activity (CAMK2A; 3 µM) | residual kinase activity (CDK18/CycY; 3 µM) | residual kinase activity (DMPK; 3 µM) | residual kinase activity (EPHB2; 3 µM) | residual kinase activity (PRKX; 3 µM) | residual kinase activity (SNARK; 3 µM)
COc1ccnc2[nH]cc(-c3cc(N)nc(N)c3)c12 [meriolin 16] | 103 % of control | 81 % of control | 36 % of control | 5 % of control | 86 % of control | 63 % of control | 97 % of control | 95 % of control | 54 % of control | 3 % of control | 99 % of control | 64 % of control |  |  |  |  |  | 
c1ccc(CNc2cc(-c3c[nH]c4ncccc34)ccn2)cc1 [meriolin 36] |  | 26 % of control |  | 6 % of control |  | 3 % of control |  | 85 % of control |  | 15 % of control |  | 30 % of control | 2 % of control | 0 % of control | -2 % of control | 47 % of control | -1 % of control | 5 % of control
